# Results reported in US4563472A, “Iodoallyl and iodopropargyl substituted tetrazoles and anti-microbial compositions thereof” (Meiji Seika Kaisha, Ltd., priority 1982, dated 1986).
# Read-outs that look alike come from different tables or passages of the source.
# Legend:
# [1] = test system: Trichoderma T-1 ATCC 9645; assay: Antifungal Activity (in Industrial Field), MIC; format: cell-based; conditions: ATCC9645, read-out: Minimal Inhibitory Conc. (MIC)
# [2] = test system: Trichophyton metagrophytes 530324; assay: Antifungal Activity (in Medicinal Field), MIC; format: cell-based
# [3] = test system: Trichophyton interdigitale; assay: Antifungal Activity (in Medicinal Field), MIC; format: cell-based; conditions: read-out: Minimal Inhibitory Conc. (MIC)
# [4] = test system: Aspergillus fumigatus Saito; assay: Antifungal Activity (in Medicinal Field), MIC; format: cell-based; conditions: read-out: Minimal Inhibitory Conc. (MIC)
# [5] = test system: Aspergillus flavus ATCC 6275; assay: Antifungal Activity (in Industrial Field), MIC; format: cell-based; conditions: ATCC6275, read-out: Minimal Inhibitory Conc. (MIC)
# [6] = test system: Aspergillus fumigatus IAM 2621; assay: Antifungal Activity (in Industrial Field), MIC; format: cell-based; conditions: IAM2621, read-out: Minimal Inhibitory Conc. (MIC)
# [7] = test system: Pullularia pullulans IAM F-24; assay: Antifungal Activity (in Industrial Field), MIC; format: cell-based; conditions: IAMF24; Pullularia pullulans IAM F-24; read-out: Minimal Inhibitory Conc. (MIC)
# [8] = test system: Aspergillus terreus PQMD 82 j; assay: Antifungal Activity (in Industrial Field), MIC; format: cell-based; conditions: PQMD82J, read-out: Minimal Inhibitory Conc. (MIC)
# Candida alubicans GA-24 = assay: Antifungal Activity (in Medicinal Field), MIC; format: cell-based
# [9] = test system: Cladosporium herbarum IAM F-517; assay: Antifungal Activity (in Industrial Field), MIC; format: cell-based; conditions: IAMF517, read-out: Minimal Inhibitory Conc. (MIC)
# Mucor spinescens IAM Mu3 = assay: Antifungal Activity (in Industrial Field), MIC; format: cell-based; conditions: IAMMU3, read-out: Minimal Inhibitory Conc. (MIC)
# [10] = test system: Cryptococcus neoformans Cr-1; assay: Antifungal Activity (in Medicinal Field), MIC; format: cell-based; conditions: CR1, read-out: Minimal Inhibitory Conc. (MIC)
# [11] = test system: Chaetomium globosum ATCC 6205; assay: Antifungal Activity (in Industrial Field), MIC; format: cell-based; conditions: ATCC6205, read-out: Minimal Inhibitory Conc. (MIC)
# [12] = test system: Rhizopus nigricans S.N. 32; assay: Antifungal Activity (in Industrial Field), MIC; format: cell-based; conditions: Rhizopus stolonifer, read-out: Minimal Inhibitory Conc. (MIC)
# [13] = test system: Penicillium luteum ATCC 9644; assay: Antifungal Activity (in Industrial Field), MIC; format: cell-based; conditions: Ascospirella lutea, ATCC9644, read-out: Minimal Inhibitory Conc. (MIC)
# Gibberella fujikuroi = assay: Antibacterial and Antifungal Activities (in Agricultural Field), MIC; format: cell-based; conditions: Fusarium fujikuroi, read-out: Minimal Inhibitory Conc. (MIC)
# Alternaria kikuchiana = assay: as above; format: cell-based; conditions: read-out: Minimal Inhibitory Conc. (MIC)
# Pellicularia filamentosa = assay: as above; format: cell-based; conditions: read-out: Minimal Inhibitory Conc. (MIC)
# [14] = test system: Fusarium oxysporum f. lycopersici; assay: as above; format: cell-based; conditions: read-out: Minimal Inhibitory Conc. (MIC)
# Cochliobolus miyabeanus = assay: as above; format: cell-based; conditions: Bipolaris oryzae, read-out: Minimal Inhibitory Conc. (MIC)
# [15] = test system: Xanthomonas campestris pv. oryzae; assay: microbe, parasite or virus in culture; format: cell-based; conditions: read-out: Minimal Inhibitory Conc. (MIC)
# [16] = test system: Colletotrichum lagenarium; assay: Antibacterial and Antifungal Activities (in Agricultural Field), MIC; format: cell-based; conditions: Colletotrichum orbiculare, read-out: Minimal Inhibitory Conc. (MIC)
# Glomerella cingulata = assay: as above; format: cell-based; conditions: Colletotrichum gloeosporioides, read-out: Minimal Inhibitory Conc. (MIC)
# Botrytis cinerea = assay: as above; format: cell-based; conditions: read-out: Minimal Inhibitory Conc. (MIC)
# [17] = test system: Trichophyton mentagrophytes; assay: Therapeutic experiment on trichophytosis in guinea pigs, visual observation; format: in vivo, guinea pigs (White Hartly-strain); conditions: 1% preparation, 0.25 ml once per day, 8 consecutive days
# [18] = test system: Trichophyton mentagrophytes; assay: Reducing culture positive rate of skin slices from infected guinea pigs; format: in vivo, guinea pigs (White Hartly-strain); parameters: concentration or dose not given beside the values; conditions: after 8 days application, non-treated 100
# Erwinia carotovora = assay: Antibacterial and Antifungal Activities (in Agricultural Field), MIC; format: cell-based; conditions: Pectobacterium carotovorum, read-out: Minimal Inhibitory Conc. (MIC)
# Diaporithe citri = assay: as above; format: cell-based; conditions: read-out: Minimal Inhibitory Conc. (MIC)
# [19] = test system: Xanthomonas campestris pv. citri; assay: as above; format: cell-based; conditions: read-out: Minimal Inhibitory Conc. (MIC)
# [20] = test system: Corynebacterium michiganense; assay: as above; format: cell-based; conditions: Clavibacter michiganensis, read-out: Minimal Inhibitory Conc. (MIC)
# [21] = test system: Pseudomonas syringae pv. tabaci; assay: as above; format: cell-based; conditions: read-out: Minimal Inhibitory Conc. (MIC)
# Phricularia oryzae = assay: as above; format: cell-based; conditions: read-out: Minimal Inhibitory Conc. (MIC)
# [22] = Trichophyton, 530324, read-out: Minimal Inhibitory Conc. (MIC)
# [23] = Candida, GA24, read-out: Minimal Inhibitory Conc. (MIC)
# [24] = Trichophyton metagrophytes 530324, read-out: Minimal Inhibitory Conc. (MIC)
# [25] = GA24, Candida alubicans GA-24, read-out: Minimal Inhibitory Conc. (MIC)
smiles,measurement,setting,value
IC#CCn1cccn1 [1-(1'-iodopropyn-3'-yl)pyrazole],MIC,[1],3.13 µg/mL
same,MIC,[2]; [22],0.39 µg/mL
same,MIC,[3],0.39 µg/mL
same,MIC,[4],0.78 µg/mL
same,MIC,[5],1.56 µg/mL
same,MIC,[6],1.56 µg/mL
same,MIC,[7],3.13 µg/mL
same,MIC,[8],0.78 µg/mL
same,MIC,Candida alubicans GA-24; [23],3.12 µg/mL
same,MIC,[9],3.13 µg/mL
same,MIC,Mucor spinescens IAM Mu3,1.56 µg/mL
same,MIC,[10],0.78 µg/mL
same,MIC,[11],12.5 µg/mL
same,MIC,[12],1.56 µg/mL
same,MIC,[13],0.78 µg/mL
"IC(I)=C(I)Cn1nnc(-c2ccccc2)n1 [2-(2',3',3'-triiodoallyl)-5-phenyltetrazole]",MIC,[2]; [24],1.56 µg/mL
same,MIC,[3],3.12 µg/mL
same,MIC,[4],6.25 µg/mL
same,MIC,Candida alubicans GA-24; [25],12.5 µg/mL
same,MIC,[10],12.5 µg/mL
IC#CCn1ncnn1 [2-(1'-iodopropyn-3'-yl)tetrazole],MIC,[1],3.13 µg/mL
same,MIC,[2]; [22],1.56 µg/mL
same,MIC,[3],1.56 µg/mL
same,MIC,[4],1.56 µg/mL
same,MIC,[5],6.25 µg/mL
same,MIC,[6],25 µg/mL
same,MIC,[7],6.25 µg/mL
same,MIC,[8],0.78 µg/mL
same,MIC,Candida alubicans GA-24; [23],3.12 µg/mL
same,MIC,[9],3.13 µg/mL
same,MIC,Mucor spinescens IAM Mu3,3.13 µg/mL
same,MIC,[10],0.78 µg/mL
same,MIC,[11],25 µg/mL
same,MIC,[12],6.25 µg/mL
same,MIC,[13],3.13 µg/mL
"CC(=O)Nc1nnn(CC(I)=C(I)I)n1 [2-(2',3',3'-triiodoallyl)-5-acetylaminotetrazole]",MIC,[2]; [24],3.12 µg/mL
same,MIC,[3],3.12 µg/mL
same,MIC,[4],12.5 µg/mL
same,MIC,Candida alubicans GA-24; [25],100 µg/mL
same,MIC,[10],100 µg/mL
O=[N+]([O-])c1ccn(CC#CI)c1 [1-(1'-iodopropyn-3'-yl)-3-nitropyrrole],MIC,Gibberella fujikuroi,3.12 µg/mL
same,MIC,Alternaria kikuchiana,1.56 µg/mL
same,MIC,[2]; [24],0.19 µg/mL
same,MIC,[3],0.78 µg/mL
same,MIC,[4],0.09 µg/mL
same,MIC,Pellicularia filamentosa,50 µg/mL
same,MIC,[14],3.12 µg/mL
same,MIC,Candida alubicans GA-24; [25],0.78 µg/mL
same,MIC,Cochliobolus miyabeanus,6.25 µg/mL
same,MIC,[15],0.39 µg/mL
same,MIC,[16],3.12 µg/mL
same,MIC,[10],0.09 µg/mL
same,MIC,Glomerella cingulata,0.78 µg/mL
same,MIC,Botrytis cinerea,0.78 µg/mL
"Clc1ccccc1C(c1ccccc1)(c1ccccc1)n1ccnc1 [chlotrimazol, 1-(O-chloro-α,α-diphenylbenzyl)imidazole, reference compound]",Therapeutic Effect: Desquamation,[17],effective
same,Therapeutic Effect: Thickening,[17],effective
same,Reducing Culture Positive Rate,[18]; 3 days culture,75%
same,Reducing Culture Positive Rate,[18]; 5 days culture,96%
same,Reducing Culture Positive Rate,[18]; 7 days culture,96%
"O=[N+]([O-])c1ccn(CC(I)=C(I)I)c1 [1-(2',3',3'-triiodoallyl)-3-nitropyrrole]",MIC,Gibberella fujikuroi,0.39 µg/mL
same,MIC,Erwinia carotovora,6.25 µg/mL
same,MIC,Alternaria kikuchiana,0.78 µg/mL
same,MIC,Diaporithe citri,0.39 µg/mL
same,MIC,[2]; [24],0.19 µg/mL
same,MIC,[3],0.39 µg/mL
same,MIC,[4],0.09 µg/mL
same,MIC,[19],50 µg/mL
same,MIC,Pellicularia filamentosa,50 µg/mL
same,MIC,[20],0.98 µg/mL
same,Therapeutic Effect: Desquamation,[17],effective
same,Therapeutic Effect: Thickening,[17],effective
same,MIC,[14],0.78 µg/mL
same,MIC,Candida alubicans GA-24; [25],0.19 µg/mL
same,MIC,Cochliobolus miyabeanus,12.5 µg/mL
same,MIC,[21],6.25 µg/mL
same,MIC,[15],25 µg/mL
same,Reducing Culture Positive Rate,[18]; 3 days culture,16.7%
same,Reducing Culture Positive Rate,[18]; 5 days culture,25.0%
same,Reducing Culture Positive Rate,[18]; 7 days culture,33.3%
same,MIC,Phricularia oryzae,1.56 µg/mL
same,MIC,[16],0.39 µg/mL
same,MIC,[10],0.39 µg/mL
same,MIC,Glomerella cingulata,0.39 µg/mL
same,MIC,Botrytis cinerea,0.19 µg/mL
